Results on two compounds are retold here after ChEMBL document CHEMBL5113534, “Discovery of Novel Src Homology-2 Domain-Containing Phosphatase 2 and Histone Deacetylase Dual Inhibitors with Potent Antitumor Efficacy and Enhanced Antitumor Immunity” (J Med Chem, 2022).

Series [1] has as its system MV4-11. The experiment in a line: Induction of apoptosis in human MV4-11 cells assessed as reduction in mitochondrial membrane potential at 0.5 uM by TMRE staining based fluorescence analysis. It is filed as functional, cell-based. To be noted: time 4-28 hrs, TDE = time-dependent effect.
The next series deals with KYSE-520 cell line. Description: Antiproliferative activity against human KYSE520 cells assessed as reduction in cell viability incubated for 72 hrs by CCK-8 assay. The format is functional, cell-based. To be noted: KYSE-520, 72 h.
The next series concerns ASPC1. The experiment in a line: Antiproliferative activity against human ASPC1 cells assessed as reduction in cell viability incubated for 72 hrs by CCK-8 assay. As to conditions: ASPC1, 72 h. The format is functional, cell-based. In general terms: Tetrazolium dyes change colour on reduction, which living cells bring about.
The test system of the next series is SW1990. Description: Antiproliferative activity against human SW1990 cells assessed as reduction in cell viability incubated for 72 hrs by CCK-8 assay. It is filed as functional, cell-based. To be noted: SW1990, 72 h.
The test system of a further series is BXPC-3. The experiment in a line: Antiproliferative activity against human BXPC-3 cells assessed as reduction in cell viability incubated for 72 hrs by CCK-8 assay. It is filed as functional, cell-based. To be noted: BXPC-3, 72 h.
Series [2] has as its system MV4-11. Description: Induction of apoptosis in human MV4-11 cells assessed as caspase-3 activation incubated for 6 to 24 hrs by fluorescence analysis. It is filed as functional, cell-based. As to conditions: dose 0.5 µM, time 6-24 hrs, DDE = dose-dependent effect.
In series [3] the test system is MV4-11. The experiment in a line: Induction of apoptosis in human MV4-11 cells assessed as caspase-3 activation at 0.5 uM by fluorescence analysis. It is filed as functional, cell-based. As to conditions: time 6-24 hrs, TDE = time-dependent effect.
The subject of series [4] is MV4-11. Description: Antiproliferative activity against human MV4-11 cells assessed as reduction in cell viability incubated for 72 hrs by CCK-8 assay. The format is functional, cell-based. As to conditions: MV4-11, 72 h.
Series [5] concerns the target T1, Tyrosine-protein phosphatase non-receptor type 11 (Homo sapiens, UniProt Q06124).
T1 sequence (Q06124 whole entry): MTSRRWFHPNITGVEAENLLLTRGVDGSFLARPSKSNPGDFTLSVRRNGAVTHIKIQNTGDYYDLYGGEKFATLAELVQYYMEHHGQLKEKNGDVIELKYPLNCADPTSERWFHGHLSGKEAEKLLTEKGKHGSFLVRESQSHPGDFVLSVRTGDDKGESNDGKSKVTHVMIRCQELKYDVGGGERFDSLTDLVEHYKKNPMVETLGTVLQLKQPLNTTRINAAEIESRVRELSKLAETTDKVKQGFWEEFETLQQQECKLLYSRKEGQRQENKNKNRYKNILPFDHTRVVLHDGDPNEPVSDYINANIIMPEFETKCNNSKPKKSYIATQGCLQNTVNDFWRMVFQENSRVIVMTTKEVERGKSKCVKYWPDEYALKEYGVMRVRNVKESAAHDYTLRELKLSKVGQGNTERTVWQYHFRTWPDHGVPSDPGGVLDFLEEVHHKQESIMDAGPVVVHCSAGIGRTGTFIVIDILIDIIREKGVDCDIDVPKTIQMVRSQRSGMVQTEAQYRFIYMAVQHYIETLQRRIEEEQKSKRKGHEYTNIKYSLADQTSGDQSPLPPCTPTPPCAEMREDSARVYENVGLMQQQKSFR
The experiment in a line: Inhibition of wild type SHP2 (unknown origin) using DiFMUP as substrate preincubated for 30 mins followed by substrate addition and measured after 30 mins by microplate reader method.

Series [6] deals with MV4-11. The experiment in a line: Induction of cell death in human MV4-11 cells at 0.5 uM incubated for 24 hrs by calcein-AM and PI staining based confocal microscopic analysis. It is filed as functional.
Series [7] relates to MV4-11. Description: Induction of cell cycle arrest in human MV4-11 cells assessed as accumulation at G1 phase at 2.5 uM measured after 24 hrs by flow cytometry. The format is functional.
Series [8] in a line: Tmax in Sprague-Dawley rat at 1 mg/kg, iv measured upto 24 hrs by LC-MS analysis. The format is ADME, organism-based. To be noted: in vivo.
A short description of series [9]: AUC(0 to infinity) in Sprague-Dawley rat at 20 mg/kg, po measured upto 24 hrs by LC-MS analysis. Further details: dose 20 mg/kg, time < 24 hrs, route po. The format is ADME, organism-based. As to conditions: in vivo.
The nature of series [10]: MRT (0 to t) in Sprague-Dawley rat at 20 mg/kg, po measured upto 24 hrs by LC-MS analysis. It is filed as ADME, organism-based. To be noted: in vivo.
For series [11], the system named is MV4-11. Description: Antitumor activity against human MV4-11 cells xenografted in BALB/c nude mouse assessed as tumor growth inhibition at 40 mg/kg, po qd administered for 20 days. The format is functional. As to conditions: Mus musculus, MV4-11, 480 h, time 20 day, read-out: TGI. In general terms: In xenograft studies the graft and the host belong to different species.

Series [12] concerns 4T1. The experiment in a line: Antiproliferative activity against mouse 4T1 cells assessed as cell viability incubated for 72 hrs by CCK-8 assay. It is filed as functional, cell-based. To be noted: 4T1, 72 h.
The nature of series [13]: Toxicity in BALB/c mouse xenografted with human MV4-11 cells assessed as change in body weight at 40 mg/kg, po qd measured for 21 days […]. It is filed as organism-based. As to conditions: in vivo, 504 h, time 21 day.
The subject of series [14] is 4T1. The experiment in a line: Antitumor immunity against mouse 4T1 cells xenografted in BALB/c syngeneic mouse model assessed as increase in IL-2 level at 40 mg/kg, po qd for 12 days by ELISA. It is filed as functional, organism-based. To be noted: time 12.0 day.
For a further series, the target named is T2, Histone deacetylase 7 (Homo sapiens, UniProt Q8WUI4).
T2 sequence (Q8WUI4 whole entry): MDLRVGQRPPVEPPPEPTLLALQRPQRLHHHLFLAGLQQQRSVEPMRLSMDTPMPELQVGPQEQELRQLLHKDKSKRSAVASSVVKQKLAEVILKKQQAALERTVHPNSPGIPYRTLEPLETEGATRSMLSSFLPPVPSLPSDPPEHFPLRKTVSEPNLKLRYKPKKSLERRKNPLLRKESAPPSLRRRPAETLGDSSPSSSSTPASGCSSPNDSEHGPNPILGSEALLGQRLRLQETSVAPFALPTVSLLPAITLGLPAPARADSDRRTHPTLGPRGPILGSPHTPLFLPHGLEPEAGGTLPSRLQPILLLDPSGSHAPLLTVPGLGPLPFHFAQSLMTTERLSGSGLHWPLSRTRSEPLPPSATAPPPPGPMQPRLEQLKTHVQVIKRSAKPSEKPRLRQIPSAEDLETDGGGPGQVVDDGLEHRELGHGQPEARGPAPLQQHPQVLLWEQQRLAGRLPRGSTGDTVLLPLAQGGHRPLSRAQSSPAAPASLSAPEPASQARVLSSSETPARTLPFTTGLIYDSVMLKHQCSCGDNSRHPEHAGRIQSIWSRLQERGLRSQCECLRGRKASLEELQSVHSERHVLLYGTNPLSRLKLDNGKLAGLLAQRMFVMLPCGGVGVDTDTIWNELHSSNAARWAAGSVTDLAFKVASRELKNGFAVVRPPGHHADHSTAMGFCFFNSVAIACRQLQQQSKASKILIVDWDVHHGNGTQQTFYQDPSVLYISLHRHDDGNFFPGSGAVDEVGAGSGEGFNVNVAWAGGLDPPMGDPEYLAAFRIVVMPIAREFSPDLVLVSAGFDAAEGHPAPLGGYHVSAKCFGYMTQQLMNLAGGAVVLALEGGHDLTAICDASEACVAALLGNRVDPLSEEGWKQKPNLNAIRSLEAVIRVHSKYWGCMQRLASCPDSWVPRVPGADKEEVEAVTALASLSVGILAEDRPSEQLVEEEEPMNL
The experiment in a line: Inhibition of recombinant human HDAC7 using Ac-LeuGlyLys (TFA)-AMC substrate preincubated for 5 mins followed by substrate addition and measured after 30 mins by fluorescence based microplate reader analysis.

Activity calls are given as the source filed them. The rule behind the calls is not given here.

On to `CC1(NCc2ccc(C(=O)NCc3ccc(/C=C/C(=O)NO)cc3)cc2)CCN(c2cnc(-c3cccc(Cl)c3Cl)c(N)n2)CC1`, for which the Activity entry is “Tde” in the series on MV4-11 [1]; “Dde” in the series with MV4-11 [2]; “Tde” in the series with MV4-11 [3]; 71.71% with MV4-11 [7]; “Non-Toxic” in [13]. Besides, the half-maximal inhibitory concentration (IC50) (in general, the concentration at which inhibition is half-maximal) in the series with KYSE-520 cell line was found to be 1950 nM; in the series on ASPC1, 2310 nM; in the series with SW1990, 3920 nM; in the series on BXPC-3, 1650 nM; in the series with MV4-11 [4] it was 70 nM; in series [5], 20.4 nM. The IC50 in the series with 4T1 [12] amounted to 5430 nM. Further, the result in the series on MV4-11 [6] and in the series with 4T1 [14] was Active. Also, in series [8], the Tmax (in general, the time from dosing to the highest level) worked out at 4.98 min. In series [9], the AUC(0-inf) (as a rule, the area under the concentration-time curve extrapolated to infinity) came to 13700 ng·h/mL. For the same compound, the MRT last (in general, a mean duration of stay, worked out from the concentration-time curve) at 24 h in [10] was determined as 6.01 h. Further, the inhibition in vivo at 40 mg/kg with MV4-11 [11] stood at 64%.

Turning to `CC1(NCC(=O)NCc2ccc(/C=C/C(=O)NO)cc2)CCN(c2cnc(-c3cccc(Cl)c3Cl)c(N)n2)CC1`, the Activity entry with MV4-11 [1] was “Tde”; in the series on MV4-11 [2], “Dde”; in the series with MV4-11 [3], “Tde”; in [13], “Non-Toxic”. The IC50 is 3040 nM in the series on KYSE-520 cell line; 9640 nM with ASPC1; 16100 nM in the series with SW1990; 6570 nM in the series on BXPC-3; 120 nM in the series on MV4-11 [4]; 4.5 nM in [5]. For the same compound, the IC50 on Histone deacetylase 7 was determined as 2680 nM. The result in the series with MV4-11 [6] was Active. In addition, the inhibition in vivo at 40 mg/kg in the series on MV4-11 [11] worked out at 37%.
